Data as given in publication PMC6651548, “Synthesis and AChE Inhibitory Activity of Novel Thiazolylhydrazone Derivatives” (Molecules, 2019).

Key:
[1] = target: AChE (Homo sapiens, UniProt P22303); test: biochemical; settings: for inhibition at 1000 µM: 10^−3 M; for IC50: 10^−3–10^−9 M concentrations; for inhibition at 100 µM: 10^−4 M
[2] = target: BChE (Homo sapiens, UniProt P06276); test: Anticholinesterase activity assay (modified Ellman method), BChE; format: biochemical; settings: for inhibition at 1000 µM: 10^−3 M; for inhibition at 100 µM: 10^−4 M
BChE, sequence (P06276 29-602): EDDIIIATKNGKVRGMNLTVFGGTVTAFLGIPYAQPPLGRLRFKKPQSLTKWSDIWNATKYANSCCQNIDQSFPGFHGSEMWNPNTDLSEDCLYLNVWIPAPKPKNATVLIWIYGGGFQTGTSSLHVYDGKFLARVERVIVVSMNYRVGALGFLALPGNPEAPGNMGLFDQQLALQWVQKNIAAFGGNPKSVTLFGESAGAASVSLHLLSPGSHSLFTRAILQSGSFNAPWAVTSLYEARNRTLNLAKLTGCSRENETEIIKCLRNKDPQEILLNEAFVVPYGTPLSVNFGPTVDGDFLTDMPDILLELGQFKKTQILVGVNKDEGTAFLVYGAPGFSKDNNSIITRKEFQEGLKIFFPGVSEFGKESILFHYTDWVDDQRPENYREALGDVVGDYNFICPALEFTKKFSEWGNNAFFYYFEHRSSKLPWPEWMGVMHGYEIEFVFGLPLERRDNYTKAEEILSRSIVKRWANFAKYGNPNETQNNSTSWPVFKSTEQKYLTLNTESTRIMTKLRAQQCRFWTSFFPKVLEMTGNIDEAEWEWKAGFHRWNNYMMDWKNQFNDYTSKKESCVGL
Description: . Initially, all the obtained compounds were tested at 10^−3 M and 10^−4 M concentrations and the ChE inhibitory results are outlined in Table 1. […]. Compounds 3a, 3c and 3i indicated more than 50% activity at the 10^−4 M concentration. […]. […] According to the results of activity tests, some general results can be listed as follows. The compounds 3a, 3c and 3i contain the non-substituted, methoxy and trifluoromethyl substituents on the phenyl ring, respectively. […]
The inhibitory capacity of the obtained compounds on AChE and BChE biological activities was assessed using a modified Ellman’s spectrometric method, as described in our previous studies. Donepezil were used as a reference drug. All pipetting procedures in the enzyme inhibition assay were carried out via a robotics system, Biotek Precision XS (Winooski, VT, USA). A BioTek-Synergy H1 microplate reader (Winooski, VT, USA) was used to carry out measurements of percent inhibition at 412 nm, and the IC50 values of the selected compounds were performed as previously described.

[3] = target: T1, hMAO-A (Homo sapiens, UniProt P21397); test: Monoamine oxidase fluorometric inhibition assay, MAO-A; format: biochemical; settings: for inhibition at 1000 µM: 10^−3 M; for inhibition at 100 µM: 10^−4 M
T1 construct: purchased Sigma-Aldrich (Steinheim, Germany)
T1 sequence (P21397 1-527): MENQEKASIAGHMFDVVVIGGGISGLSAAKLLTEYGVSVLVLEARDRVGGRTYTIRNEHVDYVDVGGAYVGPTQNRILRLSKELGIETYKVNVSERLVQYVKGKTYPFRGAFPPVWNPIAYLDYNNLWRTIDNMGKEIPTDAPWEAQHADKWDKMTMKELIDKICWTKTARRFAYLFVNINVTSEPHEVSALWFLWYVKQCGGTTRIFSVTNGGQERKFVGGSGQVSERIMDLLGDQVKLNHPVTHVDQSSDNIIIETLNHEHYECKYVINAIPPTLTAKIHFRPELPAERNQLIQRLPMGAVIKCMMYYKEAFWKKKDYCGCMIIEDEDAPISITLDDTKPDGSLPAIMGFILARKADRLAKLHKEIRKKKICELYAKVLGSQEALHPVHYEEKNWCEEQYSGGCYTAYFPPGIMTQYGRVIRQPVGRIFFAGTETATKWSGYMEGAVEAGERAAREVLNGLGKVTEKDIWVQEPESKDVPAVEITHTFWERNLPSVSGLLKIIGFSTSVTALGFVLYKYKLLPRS
Description: In order to investigate the monoamine oxidase enzyme inhibitory effects of synthesized compounds, MAO-A and MAO-B enzyme activities were performed by using a fluorometric inhibition method. Moclobemide and selegiline were used as standard drugs for MAO-A and MAO-B enzymes, respectively. Test compounds and standard drugs were used in the same concentrations as in AChE and BChE enzyme activity assays. In Table 2, MAO enzyme inhibitory results are given. […]. To investigate the MAO-A and MAO-B enzyme inhibition profiles of the synthesized compounds, the fluorometric enzyme inhibition assay was carried out, as previously defined by us. Ampliflu™ Red (10-Acetyl-3,7-dihydroxyphenoxazine) was used as a fluorescence reagent in this assay.

[4] = target: T2, hMAO-B (Homo sapiens, UniProt P27338); test: biochemical; settings: for inhibition at 1000 µM: 10^−3 M; for inhibition at 1000 µM / inhibition at 100 µM: read-out: MAO-B % Inhibition; for inhibition at 100 µM: 10^−4 M; for IC50: read-out: MAO-B IC50
T2 construct: purchased Sigma-Aldrich (Steinheim, Germany)
T2 sequence (P27338 1-520): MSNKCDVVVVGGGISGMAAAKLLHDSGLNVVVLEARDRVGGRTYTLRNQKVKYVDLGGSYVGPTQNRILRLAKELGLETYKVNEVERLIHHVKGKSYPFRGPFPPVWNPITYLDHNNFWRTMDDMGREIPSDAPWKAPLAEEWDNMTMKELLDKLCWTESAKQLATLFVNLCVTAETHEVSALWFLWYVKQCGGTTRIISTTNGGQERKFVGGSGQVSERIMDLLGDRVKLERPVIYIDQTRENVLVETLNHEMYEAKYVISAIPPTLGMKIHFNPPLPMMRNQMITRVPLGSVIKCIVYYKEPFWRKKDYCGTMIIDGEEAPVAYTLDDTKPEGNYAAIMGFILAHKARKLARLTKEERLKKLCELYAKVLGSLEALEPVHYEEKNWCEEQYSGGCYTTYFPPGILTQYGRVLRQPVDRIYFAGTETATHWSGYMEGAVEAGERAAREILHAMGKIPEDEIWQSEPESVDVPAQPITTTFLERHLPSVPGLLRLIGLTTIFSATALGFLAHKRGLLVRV
Description: Test compounds and standard drugs were used in the same concentrations as in AChE and BChE enzyme activity assays. […] To investigate the MAO-A and MAO-B enzyme inhibition profiles of the synthesized compounds, the fluorometric enzyme inhibition assay was carried out, as previously defined by us. Ampliflu™ Red (10-Acetyl-3,7-dihydroxyphenoxazine) was used as a fluorescence reagent in this assay.

AChE, sequence (P22303 32-614): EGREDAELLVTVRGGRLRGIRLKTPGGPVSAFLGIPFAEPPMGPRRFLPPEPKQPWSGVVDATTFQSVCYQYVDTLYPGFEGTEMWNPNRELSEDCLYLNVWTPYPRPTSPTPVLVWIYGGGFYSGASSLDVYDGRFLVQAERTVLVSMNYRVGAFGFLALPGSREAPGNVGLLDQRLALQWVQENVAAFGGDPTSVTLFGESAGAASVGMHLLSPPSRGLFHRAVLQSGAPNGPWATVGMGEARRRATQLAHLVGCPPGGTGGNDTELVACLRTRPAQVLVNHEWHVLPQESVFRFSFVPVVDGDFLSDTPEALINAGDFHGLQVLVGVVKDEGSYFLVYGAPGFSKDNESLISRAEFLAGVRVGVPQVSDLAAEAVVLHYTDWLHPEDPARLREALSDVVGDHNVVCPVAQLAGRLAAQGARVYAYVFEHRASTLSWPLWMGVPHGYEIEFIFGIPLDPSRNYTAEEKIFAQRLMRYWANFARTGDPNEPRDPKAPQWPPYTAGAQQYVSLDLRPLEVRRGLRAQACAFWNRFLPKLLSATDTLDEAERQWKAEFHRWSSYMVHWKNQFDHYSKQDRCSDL

SMILES	inhibition at 1000 µM [1]	IC50 [1]	inhibition at 1000 µM [2]	inhibition at 100 µM [2]	inhibition at 1000 µM [3]	inhibition at 100 µM [3]	inhibition at 1000 µM [4]	inhibition at 100 µM [4]	IC50 [4]	inhibition at 100 µM [1]
Fc1ccc(N2CCN(c3ccc(C=NNc4nc(-c5ccccc5)cs4)cc3)CC2)cc1 [Compound 3a, 2-(2-(4-(4-(4-fluorophenyl)piperazin-1-yl)benzylidene)hydrazineyl)-4-phenylthiazole]	84.2 ± 0.89%	49.6 ± 2 nM	21.5 ± 0.38%	19.3 ± 0.28%	38.2 ± 0.95%	20.1 ± 0.63%	78.2 ± 1.05%	70.2 ± 0.99%	2110 ± 86 nM	
Cc1ccc(-c2csc(NN=Cc3ccc(N4CCN(c5ccc(F)cc5)CC4)cc3)n2)cc1 [Compound 3b, 2-(2-(4-(4-(4-fluorophenyl)piperazin-1-yl)benzylidene)hydrazineyl)-4-(p-tolyl)thiazole]	75.3 ± 1.05%		37.4 ± 0.67%	25.3 ± 0.58%	44.2 ± 1.08%	25.8 ± 0.8%	60.8 ± 1.11%	46.7 ± 0.98%		45.9 ± 0.88%
O=[N+]([O-])c1ccc(-c2csc(NN=Cc3ccc(N4CCN(c5ccc(F)cc5)CC4)cc3)n2)cc1 [Compound 3d, 2-(2-(4-(4-(4-fluorophenyl)piperazin-1-yl)benzylidene)hydrazineyl)-4-(4-nitrophenyl)thiazole]	76.7 ± 1.12%		35.4 ± 0.49%	31.9 ± 0.56%	51 ± 0.97%	39.1 ± 0.71%	75.7 ± 1.06%	65.2 ± 0.97%	5200 ± 153 nM	38.5 ± 0.76%
N#Cc1ccc(-c2csc(NN=Cc3ccc(N4CCN(c5ccc(F)cc5)CC4)cc3)n2)cc1 [Compound 3e, 4-(2-(2-(4-(4-(4-fluorophenyl)piperazin-1-yl)benzylidene)hydrazineyl)thiazol-4-yl)benzonitrile]	71.2 ± 0.9%		31.8 ± 0.61%	24.9 ± 0.38%	47.2 ± 0.88%	23.5 ± 0.6%	58.1 ± 0.9%	43.1 ± 0.71%		42.3 ± 0.63%
Fc1ccc(-c2csc(NN=Cc3ccc(N4CCN(c5ccc(F)cc5)CC4)cc3)n2)cc1 [Compound 3f, 4-(4-fluorophenyl)-2-(2-(4-(4-(4-fluorophenyl)piperazin-1-yl)benzylidene)hydrazineyl)thiazole]	78.4 ± 1.04%		28.2 ± 0.42%	20.4 ± 0.35%	30.1 ± 0.47%	19.3 ± 0.41%	57.3 ± 1.03%	39.2 ± 0.79%		48.1 ± 0.87%
Fc1ccc(N2CCN(c3ccc(C=NNc4nc(-c5ccc(Cl)cc5)cs4)cc3)CC2)cc1 [Compound 3g, 4-(4-chlorophenyl)-2-(2-(4-(4-(4-fluorophenyl)piperazin-1-yl)benzylidene)hydrazineyl)thiazole]	64.5 ± 0.67%		38.54 ± 0.35%	20.2 ± 0.35%	48.2 ± 0.97%	30.2 ± 0.5%	68.1 ± 1.12%	41.8 ± 0.86%		37.8 ± 0.6%
Fc1ccc(N2CCN(c3ccc(C=NNc4nc(-c5ccc(Br)cc5)cs4)cc3)CC2)cc1 [Compound 3h, 4-(4-bromophenyl)-2-(2-(4-(4-(4-fluorophenyl)piperazin-1-yl)benzylidene)hydrazineyl)thiazole]	75.3 ± 1.06%		40.6 ± 0.68%	35.5 ± 0.41%	34.2 ± 0.58%	22.2 ± 0.47%	68.9 ± 1.25%	39.1 ± 0.63%		47.1 ± 0.74%
Fc1ccc(N2CCN(c3ccc(C=NNc4nc(-c5ccc(C(F)(F)F)cc5)cs4)cc3)CC2)cc1 [Compound 3i, 2-(2-(4-(4-(4-fluorophenyl)piperazin-1-yl)benzylidene)hydrazineyl)-4-(4-(trifluoromethyl)phenyl)thiazole]	80.7 ± 1.02%	216 ± 10 nM	45.4 ± 0.52%	35.4 ± 0.39%	38.2 ± 0.78%	22.8 ± 0.54%	59.1 ± 0.77%	40.2 ± 0.58%		> 50%
Cc1ccc(-c2csc(NN=Cc3ccc(N4CCN(c5ccc(F)cc5)CC4)cc3)n2)c(C)c1 [Compound 3j, 4-(2,4-dimethylphenyl)-2-(2-(4-(4-(4-fluorophenyl)piperazin-1-yl)benzylidene)hydrazineyl)thiazole]	53.8 ± 0.62%		31.9 ± 0.47%	25.7 ± 0.49%	48.2 ± 0.88%	40.2 ± 0.52%	69.2 ± 1.2%	40.8 ± 0.92%		26.9 ± 0.55%
Fc1ccc(N2CCN(c3ccc(C=NNc4nc(-c5ccc(Cl)cc5Cl)cs4)cc3)CC2)cc1 [Compound 3k, 4-(2,4-dichlorophenyl)-2-(2-(4-(4-(4-fluorophenyl)piperazin-1-yl)benzylidene)hydrazineyl)thiazole]	35.7 ± 0.57%		28.59 ± 0.25%	21 ± 0.61%	35.2 ± 0.48%	19.1 ± 0.4%	55.1 ± 0.92%	34.2 ± 0.81%		20.4 ± 0.3%
O=C(NCCN1CCOCC1)c1ccc(Cl)cc1 [Moclobemide, reference compound]					91.2 ± 2.8%	78.2 ± 2.55%				
